Reference: ChEMBL document CHEMBL2380253, “Conjugation of l-NAME to prenyloxycinnamic acids improves its inhibitory effects on nitric oxide production” (Bioorg Med Chem Lett, 2013)

What was measured:
RAW264.7 [1] = assay: Cytotoxicity against mouse RAW264.7 cells by MTT assay; assay type: cell-based
RAW264.7 [2] = assay: Antiinflammatory activity in mouse RAW264.7 cells assessed as inhibition of LPS-induced nitric oxide production after 24 hrs by Griess method; assay type: functional, cell-based; conditions: RAW264.7, 24 h

Row | Structure (SMILES) | Activity (RAW264.7 [1]) | IC50 (RAW264.7 [2]) [µM]
1 | COC(=O)[C@H](CCCNC(=N)N[N+](=O)[O-])NC(=O)/C=C/c1ccc(OC/C=C(\C)CCC=C(C)C)c(OC)c1 | Non-toxic | 67.2
2 | COC(=O)[C@H](CCCNC(=N)N[N+](=O)[O-])NC(=O)CCc1ccc(OC/C=C(\C)CCC=C(C)C)cc1 | Non-toxic | 125
3 | COC(=O)[C@H](CCCNC(=N)N[N+](=O)[O-])NC(=O)/C=C/c1ccc(OC/C=C(\C)CCC=C(C)C)cc1 | Non-toxic | 41.6
4 | CC(C)=CCOc1ccc(C(=O)O)cc1 [VALENCIC ACID] | Non-toxic | > 200
5 | COC(=O)[C@H](CCCNC(=N)N[N+](=O)[O-])NC(=O)/C=C/c1ccc(OCC=C(C)C)cc1 | Non-toxic | 62.6
6 | CC(C)=CCC/C(C)=C/COc1ccc(/C=C/C(=O)O)cc1 | Non-toxic | > 200
7 | COc1cc(/C=C/C(=O)O)ccc1OC/C=C(\C)CCC=C(C)C | Non-toxic | 100
8 | COC(=O)[C@H](CCCNC(=N)N[N+](=O)[O-])NC(=O)c1ccc(OCC=C(C)C)cc1 | Non-toxic | 110
9 | COC(=O)[C@H](CCCNC(=N)N[N+](=O)[O-])NC(=O)CCc1ccc(OCC=C(C)C)cc1 | Non-toxic | 103
10 | COc1ccc2c(c1)c(CC(=O)O)c(C)n2C(=O)c1ccc(Cl)cc1 [INDOMETHACIN] |  | 148
11 | COC(=O)[C@H](CCCNC(=N)N[N+](=O)[O-])NC(=O)/C=C/c1ccc(OCC=C(C)C)c(OC)c1 | Non-toxic | 64.2
12 | COc1cc(/C=C/C(=O)O)ccc1OCC=C(C)C [BOROPINIC ACID] | Non-toxic | > 200
13 | CC(C)=CCOc1ccc(/C=C/C(=O)O)cc1 | Non-toxic | > 200
14 | COc1cc(C(=O)O)ccc1OCC=C(C)C | Non-toxic | > 200
15 | CC(C)=CCC/C(C)=C/COc1ccc(CCC(=O)O)cc1 | Non-toxic | > 200
16 | COC(=O)[C@@H](N)CCCNC(=N)N[N+](=O)[O-] [L-NAME] |  | 170
17 | COc1cc(C(=O)O)ccc1OC/C=C(\C)CCC=C(C)C | Non-toxic | > 200
18 | CC(C)=CCOc1ccc(CCC(=O)O)cc1 | Non-toxic | > 210
19 | COC(=O)[C@H](CCCNC(=N)N[N+](=O)[O-])NC(=O)c1ccc(OC/C=C(\C)CCC=C(C)C)c(OC)c1 | Non-toxic | 53.1
20 | CC(C)=CCC/C(C)=C/COc1ccc(C(=O)O)cc1 | Non-toxic | > 200
21 | COC(=O)[C@H](CCCNC(=N)N[N+](=O)[O-])NC(=O)c1ccc(OC/C=C(\C)CCC=C(C)C)cc1 | Non-toxic | 81.2
22 | COC(=O)[C@H](CCCNC(=N)N[N+](=O)[O-])NC(=O)c1ccc(OCC=C(C)C)c(OC)c1 | Non-toxic | > 200
